# Columns and labels:
# [1] = irradiation with light having 350 nm; cited from earlier work
# [2] = test system: ODN(T) (5′-ACGGGTGCA-3′), thymine; experiment: Photocrosslinking reaction targeted for thymine, HPLC analysis after light irradiation; settings: for conversion rate: irradiation for one hour
# Method: (§1) To an equal amount mixture (5 μM in 50 mM Na-Cacodylate buffer (pH 7.4), 100 mM NaCl) of the oligo DNA containing pc-D [hereinafter referred to as ODN (Y·pc-D), in which Y is A (adenine) or G (guanine)] and a complementary oligo DNA [hereinafter referred to as ODN(Z), in which Z is T (thymine) or C (cytosine)] was added deoxyuridine (25 μM) as an internal standard, and irradiated with light at 4° C. (400 nm, […]). The solution was analyzed by HPLC (eluent: acetonitrile/50 mM of ammonium formate; 1-20% of acetonitrile/10 min; a flow rate: 0.2 mL/min) to evaluate photoreactivity.
# FIG. 3a is an explanatory diagram showing the flow of the operations. In the ODN (A-pc-D)(5′-TGCAXCCGT-3′)(SEQ ID NO: 1) in which the target of photocrosslinking is thymine (T). the nucleoside analog (pc-D) according to the present invention is introduced as an improved photoreactive element at a position of X in the sequence.
# Charts arranged in the vertical axis direction correspond to light irradiation times (0 sec, 1 sec, 5 sec. 10 sec, and 30 sec), and the horizontal axis indicates a retention time (minutes). The peaks of ODN (A⋅pc-D) and ODN (T), which were present before light irradiation (0 sec), were reduced by the light irradiation, and at the same time, a peak of a photodimer (ODN (pc-D/T)) with ODN (A⋅pc-D) and ODN (T) crosslinked appeared. As the light irradiation time increased, the peak area of(ODN (pc-D/T)) increased, confirming that the photocrosslinking reaction was progressing. FIG. 3c is a graph showing a change in a crosslinking rate as a function of light irradiation time. In FIG. 3c, the horizontal axis represents a light irradiation time (seconds), and the vertical axis represents a conversion rate (%). The conversion rate, i.e., a rate of change from a monomer to a dimer, was defined as a conversion rate of 100% for a case of being completely changed to the dimer.
# The respective conversion rates were 86% at 450 nm, 70% at 500 nm, and 38% at 550 nm.
# The photocrosslinking reaction was carried out by the same procedure as that of ODN (A-pc-D), using a pc-S-containing oligo DNA in which T (thymine) was a target for the photocrosslinking (5′-TGCAXCCGT-3′: hereinafter referred to as ODN (A-pc-S)) (SEQ ID NO: 5), and ODN (T) which was a complementary oligo DNA (FIG. 6a).
# Charts arranged in the vertical axis direction correspond to light irradiation times (0 seconds, 60 seconds), respectively, and the horizontal axis indicates a retention time (minutes).
# [3] = test system: ODN (C) (5′-ACGGGCGCA-3′), cytosine; experiment: Photocrosslinking reaction targeted for cytosine, HPLC analysis after light irradiation; settings: 400 nm, 30 seconds
# Method: as §1
# The photocrosslinking reaction was carried out by the same procedure as that of ODN (A⋅pc-D), using a pc-D-containing oligo DNA in which C (cytosine) was a target for the photocrosslinking (5′-TGCGXCCGT-3′; hereinafter referred to as ODN (G-pc-D)) (SEQ ID NO: 3) and a complementary oligo DNA (5′-ACGGGCGCA-3′: hereinafter referred to as ODN (C))(FIG. 4a)(SEQ ID NO: 4). As a result of irradiation with light having 400 nm for 30 seconds, the conversion rate by photocrosslinking was 71% (FIG. 4b).
compound,measurement,setting,value
O=c1ccc2cc3ccoc3cc2o1 [psoralen],time required for photoreaction,[1],several hours
"ODN (A·pc-D): Oligo DNA 5′-TGCAXCCGT-3′, in which X is the nucleic acid photoreactive element (pc-D) (DNA TGCANCCGT; photoreactive element pc-D, chemistry not fully specified)",conversion rate (monomer to photodimer),"[2]; 400 nm, 10 seconds of irradiation, 4° C., 5 μM, pH 7.4",94%
same,crosslinking,"[2]; 400 nm, after one hour, 4° C.",~100%
same,conversion rate,[2]; 450 nm,86%
same,conversion rate,[2]; 500 nm,70%
same,conversion rate,[2]; 550 nm,38%
"ODN (A·pc-S): Oligo DNA 5′-TGCAXCCGT-3′, in which X is the nucleic acid photoreactive element (pc-S) (DNA TGCANCCGT; photoreactive element pc-S, chemistry not fully specified)",photodimer formation (HPLC),"[2]; 400 nm, 60 seconds",a peak of the photodimer (ODN (pc-S/T) appeared
"ODN (G-pc-D): Oligo DNA 5′-TGCGXCCGT-3′, in which X is the nucleic acid photoreactive element (pc-D) (DNA TGCGNCCGT; photoreactive element pc-D, chemistry not fully specified)",conversion rate by photocrosslinking,[3],71%

# Reference: patent publication US11078211B2, “Photoresponsive nucleotide analog capable of photocrosslinking in visible light region” (JAPAN ADVANCED INSTITUTE OF SCIENCE AND TECHNOLOGY, priority 2017, dated 2021)
